According to patent publication US10953012B2, “Heterocyclic compounds for the inhibition of pask” (BioEnergenix LLC, priority 2011, dated 2021):
pIC50: −log10 of the molar value.

Tests used:
[1] = target: PASK (UniProt #Q96RG2; residues 879-1323) (Homo sapiens (Human), UniProt Q96RG2); assay: PASK ATP Radiochemical Assay; assay type: biochemical; conditions: 33P-ATP radiochemical assay; read-out: IC50 Kinase Domain
Method: PASK ATP Radiochemical Assay Purified PASK (UniProt #Q96RG2; human recombinant N-terminal GST tagged construct, residues 879-1323) from insect cells (final concentration 5 nM) is added to freshly prepared Base Reaction Buffer containing 20 mM HEPES (pH 7.5), 10 mM MgCl2, 1 mM EGTA, 0.02% Brij35, 0.02 mg/ml BSA, 0.1 mM Na3VO4, 2 mM DTT, 1% DMSO and Myelin Basic Protein (20 μM final). Test compounds in DMSO are then added and the mixture, followed by delivery of ^33P-ATP (specific activity 0.01 μCi/μl final) to initiate the reaction. The kinase reaction is incubated for 120 min at room temperature. The entire reaction mixture is washed through onto a P81 Phosphocellulose paper and washed three times for 10 minutes in 75 mM phosphoric acid and once in methanol prior to drying and scintillation counting.

[2] = target: PASK (Homo sapiens (Human), UniProt Q96RG2); assay: PAS Kinase FRET Assay; assay type: biochemical; conditions: TR-FRET assay; read-out: IC50 Kinase Domain
Chain of PASK (Homo sapiens (Human), UniProt Q96RG2) (Q96RG2 999-1251): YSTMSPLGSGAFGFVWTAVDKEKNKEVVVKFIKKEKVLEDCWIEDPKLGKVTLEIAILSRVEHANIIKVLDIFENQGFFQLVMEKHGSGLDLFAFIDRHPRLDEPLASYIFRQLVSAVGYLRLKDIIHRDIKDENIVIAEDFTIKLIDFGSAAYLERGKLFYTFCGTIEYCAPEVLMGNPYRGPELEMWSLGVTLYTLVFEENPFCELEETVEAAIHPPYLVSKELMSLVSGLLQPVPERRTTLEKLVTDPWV
In short: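 TR-FRET read-out (665/615 nm) of ULight-peptide phosphorylation by PASK, detected with Eu-labelled anti-phospho antibody. Compound, kinase and substrate/ATP reacted 2 h at 25 °C in the dark in 50 mM HEPES, 10 mM MgCl2, 1 mM EGTA, 0.01% Tween-20, 2 mM DTT. Eleven-point dilution series made at 4× final.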

[3] = target: CK2a2 (Homo sapiens (Human), UniProt P19784); assay: Biochemical Assay for CK2 Activity; conditions: 33P-ATP radiochemical assay; read-out: IC50 CK2 a2
Chain of CK2a2 (P19784 whole entry): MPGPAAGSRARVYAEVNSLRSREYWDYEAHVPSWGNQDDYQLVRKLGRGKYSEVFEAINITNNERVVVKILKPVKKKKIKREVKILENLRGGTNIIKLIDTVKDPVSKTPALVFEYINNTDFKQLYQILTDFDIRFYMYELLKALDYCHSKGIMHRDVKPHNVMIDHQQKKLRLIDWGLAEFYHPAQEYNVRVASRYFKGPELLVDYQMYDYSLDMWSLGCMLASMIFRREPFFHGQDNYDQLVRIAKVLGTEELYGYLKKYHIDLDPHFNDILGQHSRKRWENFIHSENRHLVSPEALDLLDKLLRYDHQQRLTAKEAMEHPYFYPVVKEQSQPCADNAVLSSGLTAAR
In short: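 GST-tagged full-length human CK2a2 from insect cells (1.2 nM) with 20 μM RRRDDDSDDD peptide, in pH 7.5 HEPES buffer with MgCl2, DTT and 1% DMSO. Reactions started with ³³P-ATP were run for 120 min at room temperature. Substrate phosphorylation was measured by P81 phosphocellulose filter binding and scintillation counting.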

Chain of PASK (UniProt #Q96RG2; residues 879-1323) (Homo sapiens (Human), UniProt Q96RG2) (Q96RG2 879-1323): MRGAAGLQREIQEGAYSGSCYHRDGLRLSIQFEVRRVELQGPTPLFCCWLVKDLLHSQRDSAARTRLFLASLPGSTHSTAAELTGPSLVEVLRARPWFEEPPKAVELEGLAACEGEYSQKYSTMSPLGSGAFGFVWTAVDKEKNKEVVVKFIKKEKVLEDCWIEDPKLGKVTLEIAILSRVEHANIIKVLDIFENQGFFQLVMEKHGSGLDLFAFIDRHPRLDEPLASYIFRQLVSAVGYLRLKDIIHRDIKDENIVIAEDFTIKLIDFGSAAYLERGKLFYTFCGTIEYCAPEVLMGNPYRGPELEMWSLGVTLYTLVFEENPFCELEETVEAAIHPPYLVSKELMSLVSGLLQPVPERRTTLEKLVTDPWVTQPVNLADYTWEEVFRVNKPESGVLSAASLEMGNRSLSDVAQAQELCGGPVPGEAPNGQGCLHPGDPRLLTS

Structure (SMILES): CCc1nn2c(=O)cc(-c3ccc4c(c3)OCO4)[nH]c2c1-c1ccccn1 [Example 161, 5-(Benzo[d][1,3]dioxol-5-yl)-2-ethyl-3-(pyridin-2-yl)pyrazolo[1,5-a]pyrimidin-7(4H)-one]
- pIC50 [1]: ≥ 5.00
- pIC50 [2]: ≥ 5.00
- pIC50 [3]: ≥ 5.00

Structure (SMILES): Nc1nn2c(=O)cc(-c3ccc(Cl)cc3F)[nH]c2c1-c1ccccn1 [Example 163, 2-Amino-5-(4-chloro-2-fluorophenyl)-3-(pyridin-2-yl)pyrazolo[1,5-a]pyrimidin-7(4H)-one]
- pIC50 [1]: ≥ 5.00
- pIC50 [2]: ≥ 5.00
- pIC50 [3]: ≥ 5.00

Structure (SMILES): O=c1cc(-c2ccc3c(c2)OCO3)[nH]c2c(-c3ncccc3F)cnn12 [Example 164, 5-(Benzo[d][1,3]dioxol-5-yl)-3-(3-fluoropyridin-2-yl)pyrazolo[1,5-a]pyrimidin-7(4H)-one]
- pIC50 [1]: ≥ 5.00
- pIC50 [2]: ≥ 5.00
- pIC50 [3]: ≥ 5.00

Structure (SMILES): Nc1nn2c(=O)cc(-c3ccc(F)cc3)[nH]c2c1-c1ccccn1 [Example 171, 2-Amino-5-(4-fluorophenyl)-3-(pyridin-2-yl)pyrazolo[1,5-a]pyrimidin-7(4H)-one]
- pIC50 [1]: ≥ 5.00
- pIC50 [2]: ≥ 5.00
- pIC50 [3]: ≥ 5.00

Structure (SMILES): Nc1nn2c(=O)cc(-c3ccc4[nH]nnc4c3)[nH]c2c1-c1ccccn1 [Example 191, 2-Amino-5-(1H-benzo[d][1,2,3]triazol-5-yl)-3-(pyridin-2-yl)pyrazolo[1,5-a]pyrimidin-7(4H)-one]
- pIC50 [1]: ≥ 5.00
- pIC50 [2]: ≥ 5.00
- pIC50 [3]: ≥ 5.00

Structure (SMILES): O=c1cc(-c2ccc3[nH]nnc3c2)[nH]c2c(-c3ccccn3)c(O)nn12 [Example 193, 5-(1H-Benzo[d][1,2,3]triazol-5-yl)-2-hydroxy-3-(pyridin-2-yl)pyrazolo[1,5-a]pyrimidin-7(4H)-one]
- pIC50 [1]: ≥ 5.00
- pIC50 [2]: ≥ 5.00
- pIC50 [3]: ≥ 5.00

Structure (SMILES): CCCNC(=O)c1c(N)nn2c(=O)cc(-c3ccc4c(cnn4C)c3)[nH]c12 [Example 197, 2-Amino-5-(1-methyl-1H-indazol-5-yl)-7-oxo-N-propyl-4,7-dihydropyrazolo[1,5-a]pyrimidine-3-carboxamide]
- pIC50 [1]: ≥ 5.00
- pIC50 [2]: ≥ 5.00
- pIC50 [3]: ≥ 5.00

Structure (SMILES): CCCNC(=O)c1c(N)nn2c(=O)cc(-c3ccc4[nH]ncc4c3)[nH]c12 [Example 198, 2-Amino-5-(1H-indazol-5-yl)-7-oxo-N-propyl-4,7-dihydropyrazolo[1,5-a]pyrimidine-3-carboxamide]
- pIC50 [1]: ≥ 5.00
- pIC50 [2]: ≥ 5.00
- pIC50 [3]: ≥ 5.00

Structure (SMILES): Nc1nn2c(=O)cc(-c3ccc4[nH]nnc4c3)[nH]c2c1-c1ccccc1 [Example 199, 2-Amino-5-(1H-benzo[d][1,2,3]triazol-5-yl)-3-phenylpyrazolo[1,5-a]pyrimidin-7(4H)-one]
- pIC50 [1]: ≥ 5.00
- pIC50 [2]: ≥ 5.00
- pIC50 [3]: ≥ 5.00

Structure (SMILES): CCc1nn2c(=O)cc(-c3ccc4[nH]nnc4c3)[nH]c2c1-c1ccccn1 [Example 201, 5-(1H-benzo[d][1,2,3]triazol-5-yl)-2-ethyl-3-(pyridin-2-yl)pyrazolo[1,5-a]pyrimidin-7(4H)-one]
- pIC50 [1]: ≥ 5.00
- pIC50 [2]: ≥ 5.00
- pIC50 [3]: ≥ 5.00

Structure (SMILES): CC(=O)Nc1nn2c(=O)cc(-c3ccc4c(cnn4C)c3)[nH]c2c1-c1ccccn1 [Example 205, N-(5-(1-Methyl-1H-indazol-5-yl)-7-oxo-3-(pyridin-2-yl)-4,7-dihydropyrazolo[1,5-a]pyrimidin-2-yl)acetamide]
- pIC50 [1]: ≥ 5.00
- pIC50 [2]: ≥ 5.00
- pIC50 [3]: ≥ 5.00

Structure (SMILES): Cc1nn2c(=O)cc(-c3ccc4c(c3)OCO4)[nH]c2c1Cc1ccccn1 [Example 210, 5-(Benzo[d][1,3]dioxol-5-yl)-2-methyl-3-(pyridin-2-ylmethyl)pyrazolo[1,5-a]pyrimidin-7(4H)-one]
- pIC50 [1]: ≥ 5.00
- pIC50 [2]: ≥ 5.00
- pIC50 [3]: ≥ 5.00

Structure (SMILES): O=c1cc(-c2ccc3[nH]nnc3c2)[nH]c2c(-c3cccnc3)cnn12 [Example 213, 5-(1H-Benzo[d][1,2,3]triazol-5-yl)-3-(pyridin-3-yl)pyrazolo[1,5-a]pyrimidin-7(4H)-one]
- pIC50 [1]: ≥ 5.00
- pIC50 [2]: ≥ 5.00
- pIC50 [3]: ≥ 5.00

Structure (SMILES): CCCNC(=O)c1cnn2c(=O)cc(-c3ccc4[nH]nnc4c3)[nH]c12 [Example 214, 5-(1H-Benzo[d][1,2,3]triazol-5-yl)-7-oxo-N-propyl-4,7-dihydropyrazolo[1,5-a]pyrimidine-3-carboxamide]
- pIC50 [1]: ≥ 5.00
- pIC50 [2]: ≥ 5.00
- pIC50 [3]: ≥ 5.00

Structure (SMILES): Nc1nn2c(=O)cc(-c3ccc4[nH]nnc4c3)[nH]c2c1-c1ccc(Cl)cc1 [Example 217, 2-Amino-5-(1H-benzo[d][1,2,3]triazol-5-yl)-3-(4-chlorophenyl)pyrazolo[1,5-a]pyrimidin-7(4H)-one]
- pIC50 [1]: ≥ 5.00
- pIC50 [2]: ≥ 5.00
- pIC50 [3]: ≥ 5.00

Structure (SMILES): O=c1cc(-c2ccc3[nH]nnc3c2)[nH]c2c(-c3ccc(Cl)cc3)cnn12 [Example 218, 5-(1H-Benzo[d][1,2,3]triazol-5-yl)-3-(4-chlorophenyl)pyrazolo[1,5-a]pyrimidin-7(4H)-one]
- pIC50 [1]: ≥ 5.00
- pIC50 [2]: ≥ 5.00
- pIC50 [3]: ≥ 5.00

Structure (SMILES): CCCNC(=O)c1c(N)nn2c(=O)cc(-c3ccc4[nH]nnc4c3)[nH]c12 [Example 223, 2-Amino-5-(1H-benzo[d][1,2,3]triazol-5-yl)-7-oxo-N-propyl-4,7-dihydropyrazolo[1,5-a]pyrimidine-3-carboxamide]
- pIC50 [1]: ≥ 5.00
- pIC50 [2]: ≥ 5.00
- pIC50 [3]: ≥ 5.00

Structure (SMILES): CCCNC(=O)c1c(N)nn2c(=O)cc(-c3ccc4[nH]nc(C)c4c3)[nH]c12 [Example 224, 2-Amino-5-(3-methyl-1H-indazol-5-yl)-7-oxo-N-propyl-4,7-dihydropyrazolo[1,5-a]pyrimidine-3-carboxamide]
- pIC50 [1]: ≥ 5.00
- pIC50 [2]: ≥ 5.00
- pIC50 [3]: ≥ 5.00

Structure (SMILES): CCCNC(=O)c1c(N)nn2c(=O)cc(-c3ccc(Cl)cc3)[nH]c12 [Example 225, 2-Amino-5-(4-chlorophenyl)-7-oxo-N-propyl-4,7-dihydropyrazolo[1,5-a]pyrimidine-3-carboxamide]
- pIC50 [1]: ≥ 5.00
- pIC50 [2]: ≥ 5.00
- pIC50 [3]: ≥ 5.00

Structure (SMILES): CCCNC(=O)c1c(O)nn2c(=O)cc(-c3ccc4c(c3)OCO4)[nH]c12 [Example 227, 5-(Benzo[d][1,3]dioxol-5-yl)-2-hydroxy-7-oxo-N-propyl-4,7-dihydropyrazolo[1,5-a]pyrimidine-3-carboxamide]
- pIC50 [1]: ≥ 5.00
- pIC50 [2]: ≥ 5.00
- pIC50 [3]: ≥ 5.00

Structure (SMILES): COc1c(-c2cc(=O)n3nc(N)c(-c4ccccn4)c3[nH]2)ccc2c1OCO2 [Example 234, 2-Amino-5-(4-methoxybenzo[d][1,3]dioxol-5-yl)-3-(pyridin-2-yl)pyrazolo[1,5-a]pyrimidin-7(4H)-one]
- pIC50 [1]: ≥ 5.00
- pIC50 [2]: ≥ 5.00
- pIC50 [3]: ≥ 5.00

Structure (SMILES): COc1c(-c2cc(=O)n3nc(O)c(-c4ccccn4)c3[nH]2)ccc2c1OCO2 [Example 235, 2-Hydroxy-5-(4-methoxybenzo[d][1,3]dioxol-5-yl)-3-(pyridin-2-yl)pyrazolo[1,5-a]pyrimidin-7(4H)-one]
- pIC50 [1]: ≥ 5.00
- pIC50 [2]: ≥ 5.00
- pIC50 [3]: ≥ 5.00

Structure (SMILES): COc1c(-c2cc(=O)n3nc(C)c(-c4ccccn4)c3[nH]2)ccc2c1OCO2 [Example 237, 5-(4-Methoxybenzo[d][1,3]dioxol-5-yl)-2-methyl-3-(pyridin-2-yl)pyrazolo[1,5-a]pyrimidin-7(4H)-one]
- pIC50 [1]: ≥ 5.00
- pIC50 [2]: ≥ 5.00
- pIC50 [3]: ≥ 5.00

Structure (SMILES): COc1cc2[nH]nnc2cc1-c1cc(=O)n2nc(N)c(-c3ccccn3)c2[nH]1 [Example 243, 2-Amino-5-(6-methoxy-1H-benzo[d][1,2,3]triazol-5-yl)-3-(pyridin-2-yl)pyrazolo[1,5-a]pyrimidin-7(4H)-one]
- pIC50 [1]: ≥ 5.00
- pIC50 [2]: ≥ 5.00
- pIC50 [3]: ≤ 5.00

Structure (SMILES): COc1c(-c2cc(=O)n3ncc(-c4ccccn4)c3[nH]2)ccc2[nH]nnc12 [Example 245, 5-(4-Methoxy-1H-benzo[d][1,2,3]triazol-5-yl)-3-(pyridin-2-yl)pyrazolo[1,5-a]pyrimidin-7(4H)-one]
- pIC50 [1]: ≥ 5.00
- pIC50 [2]: ≥ 5.00
- pIC50 [3]: ≥ 5.00

Structure (SMILES): O=c1cc(-c2cc3nn[nH]c3cc2F)[nH]c2c(-c3ccccn3)cnn12 [Example 249, 5-(6-Fluoro-1H-benzo[d][1,2,3]triazol-5-yl)-3-(pyridin-2-yl)pyrazolo[1,5-a]pyrimidin-7(4H)-one]
- pIC50 [1]: ≥ 5.00
- pIC50 [2]: ≥ 5.00
- pIC50 [3]: ≥ 5.00

Structure (SMILES): O=c1cc(-c2ccc(-c3ncco3)cc2)[nH]c2c(-c3ccccn3)cnn12 [Example 254, 5-(4-(Oxazol-2-yl)phenyl)-3-(pyridin-2-yl)pyrazolo[1,5-a]pyrimidin-7(4H)-one]
- pIC50 [1]: ≥ 5.00
- pIC50 [2]: ≥ 5.00
- pIC50 [3]: ≤ 5.00

Structure (SMILES): N#Cc1ccc(-c2cc(=O)n3ncc(-c4ccccn4)c3[nH]2)cc1 [Example 256, 4-(7-Oxo-3-(pyridin-2-yl)-4,7-dihydropyrazolo[1,5-a]pyrimidin-5-yl)benzonitrile]
- pIC50 [1]: ≥ 5.00
- pIC50 [2]: ≥ 5.00
- pIC50 [3]: ≤ 5.00
